How the values were obtained:
[1] = target: T1, Folylpolyglutamate synthase, mitochondrial (Mus musculus, UniProt P48760); test: In vitro inhibition of mouse liver Folyl-polyglutamate synthase
T1 sequence (P48760 whole entry): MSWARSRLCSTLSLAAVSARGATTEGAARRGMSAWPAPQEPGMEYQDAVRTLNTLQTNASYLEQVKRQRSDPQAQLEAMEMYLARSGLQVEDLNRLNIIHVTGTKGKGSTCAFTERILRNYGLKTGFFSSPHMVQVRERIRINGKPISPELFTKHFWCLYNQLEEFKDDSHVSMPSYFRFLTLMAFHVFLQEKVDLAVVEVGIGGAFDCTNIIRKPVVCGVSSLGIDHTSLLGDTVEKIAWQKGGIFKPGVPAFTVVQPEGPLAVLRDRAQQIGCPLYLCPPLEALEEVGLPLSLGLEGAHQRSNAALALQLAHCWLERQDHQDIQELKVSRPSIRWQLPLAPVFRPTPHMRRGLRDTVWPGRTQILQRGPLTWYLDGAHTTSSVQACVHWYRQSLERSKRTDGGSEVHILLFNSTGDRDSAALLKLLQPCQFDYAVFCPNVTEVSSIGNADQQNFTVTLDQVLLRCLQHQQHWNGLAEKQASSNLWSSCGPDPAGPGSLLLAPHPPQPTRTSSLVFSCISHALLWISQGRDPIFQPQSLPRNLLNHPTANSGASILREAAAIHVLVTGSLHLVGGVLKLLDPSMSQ

Dihydrofolate reductase = target: T2, Dihydrofolate reductase (Homo sapiens, UniProt P00374); test: In vitro inhibition of human dihydrofolate reductase (DHFR)
T2 sequence (P00374 whole entry): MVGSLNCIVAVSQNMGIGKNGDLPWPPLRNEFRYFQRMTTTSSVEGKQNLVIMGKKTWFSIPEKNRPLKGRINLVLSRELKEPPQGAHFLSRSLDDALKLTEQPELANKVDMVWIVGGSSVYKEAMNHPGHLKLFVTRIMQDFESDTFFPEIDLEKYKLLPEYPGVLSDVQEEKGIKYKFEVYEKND

Thymidylate synthase = Thymidylate synthase (Homo sapiens, UniProt P04818); test: In vitro inhibition of human thymidylate synthase (TS)
[2] = target: T3, Trifunctional purine biosynthetic protein adenosine-3 (Mus musculus, UniProt Q64737); test: In vitro inhibition of Glycinamide ribonucleotide formyltransferase from L1210 murine leukemia cells
T3 sequence (Q64737 whole entry): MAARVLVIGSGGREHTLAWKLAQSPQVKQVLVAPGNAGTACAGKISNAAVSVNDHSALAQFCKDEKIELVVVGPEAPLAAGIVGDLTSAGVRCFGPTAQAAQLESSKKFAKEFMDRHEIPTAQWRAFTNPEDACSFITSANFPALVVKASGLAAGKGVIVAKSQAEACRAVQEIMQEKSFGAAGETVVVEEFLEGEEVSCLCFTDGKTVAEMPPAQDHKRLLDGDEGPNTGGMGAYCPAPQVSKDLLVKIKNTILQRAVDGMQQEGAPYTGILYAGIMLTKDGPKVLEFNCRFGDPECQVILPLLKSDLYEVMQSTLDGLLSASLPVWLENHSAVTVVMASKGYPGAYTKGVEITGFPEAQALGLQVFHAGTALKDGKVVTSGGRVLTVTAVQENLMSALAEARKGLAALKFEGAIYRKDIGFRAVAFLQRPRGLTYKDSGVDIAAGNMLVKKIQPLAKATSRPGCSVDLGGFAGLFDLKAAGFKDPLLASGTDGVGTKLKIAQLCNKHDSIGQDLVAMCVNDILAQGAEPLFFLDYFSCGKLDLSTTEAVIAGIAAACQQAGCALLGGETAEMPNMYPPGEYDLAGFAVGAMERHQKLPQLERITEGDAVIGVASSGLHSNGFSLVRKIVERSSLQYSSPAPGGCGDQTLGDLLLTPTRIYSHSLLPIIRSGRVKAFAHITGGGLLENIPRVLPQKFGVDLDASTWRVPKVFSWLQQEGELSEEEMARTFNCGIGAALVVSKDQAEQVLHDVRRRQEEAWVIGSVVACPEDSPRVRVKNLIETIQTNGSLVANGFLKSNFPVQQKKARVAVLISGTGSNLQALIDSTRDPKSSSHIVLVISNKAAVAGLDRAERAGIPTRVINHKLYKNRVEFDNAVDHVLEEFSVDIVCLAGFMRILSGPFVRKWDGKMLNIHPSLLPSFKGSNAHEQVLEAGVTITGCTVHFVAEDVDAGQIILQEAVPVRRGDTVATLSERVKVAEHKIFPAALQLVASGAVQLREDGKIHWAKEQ

[3] = target: T3, Trifunctional purine biosynthetic protein adenosine-3; test: In vitro inhibition of mouse GAR transformylase

Sequence of Thymidylate synthase (P04818 whole entry): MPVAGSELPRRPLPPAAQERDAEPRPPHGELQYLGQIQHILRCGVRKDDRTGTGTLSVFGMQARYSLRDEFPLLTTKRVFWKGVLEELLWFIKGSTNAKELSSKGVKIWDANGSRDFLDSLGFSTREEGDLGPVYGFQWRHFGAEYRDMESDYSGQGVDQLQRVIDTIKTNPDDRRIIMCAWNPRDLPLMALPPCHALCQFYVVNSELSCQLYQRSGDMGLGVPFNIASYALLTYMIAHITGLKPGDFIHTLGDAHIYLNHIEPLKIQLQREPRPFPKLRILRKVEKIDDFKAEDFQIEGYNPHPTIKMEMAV

| Compound | IC50 (Thymidylate synthase) [µM] | Ki [3] [µM] | Ki [1] [µM] | IC50 (Dihydrofolate reductase) [µM] | Ki [2] [µM] |
| --- | --- | --- | --- | --- | --- |
| CCOP(=O)(O)CCC(NC(=O)c1ccc(NCC2CNc3nc(N)nc(O)c3C2)cc1)C(=O)O (configuration not stated) | > 5000 |  | 115 | 950 |  |
| Nc1nc(O)c2c(n1)NCC(CNc1ccc(C(=O)NC(CCS(=O)(=O)O)C(=O)O)cc1)C2 (configuration not stated) | 2100 |  | 22 | 12 | 0.19 |
| Nc1nc(O)c2c(n1)NCC(CNc1ccc(C(=O)NC(CCP(=O)(O)O)C(=O)O)cc1)C2 (configuration not stated) | 4200 |  | 3.2 | 220 | 0.047 |
| CCCN(Cc1ccc2nc(N)nc(O)c2c1)c1ccc(C(=O)NC(CCC(=O)O)C(=O)O)cc1 (configuration not stated) | 0.068 |  |  |  |  |
| Nc1nc(O)c2c(n1)CCC(CNc1ccc(C(=O)NC(CCC(=O)O)C(=O)O)cc1)C2 (configuration not stated) |  | 0.065 |  |  |  |

Continued, in another order:

| IC50 (Thymidylate synthase) [µM] | Ki [3] [µM] | Compound | Ki [1] [µM] | IC50 (Dihydrofolate reductase) [µM] | Ki [2] [µM] |
| --- | --- | --- | --- | --- | --- |
| 300 |  | Nc1nc2ncc(CNc3ccc(C(=O)NC(CCP(=O)(O)O)C(=O)O)cc3)cc2c(=O)[nH]1 (configuration not stated) | 9 | 4.7 |  |
| 100 |  | CCOP(=O)(O)CCC(NC(=O)c1ccc(NCc2cnc3nc(N)[nH]c(=O)c3c2)cc1)C(=O)O (configuration not stated) | 2000 | 1.3 |  |
| 55 |  | Nc1nc2ncc(CNc3ccc(C(=O)NC(CCS(=O)(=O)O)C(=O)O)cc3)cc2c(=O)[nH]1 (configuration not stated) | 570 | 0.4 |  |
